The values below come from article PMC6261607, “Novel high–throughput myofibroblast assays identify agonists with therapeutic potential in pulmonary fibrosis that act via EP2 and EP4 receptors” (PLoS ONE, 2018).

For data set [1], the system named is normal human lung fibroblasts (NHLF). As to the kind of experiment: Nuclear count in the HCA, standard assay. The conditions noted are these: standard HCA, NHLF, 5 ng/ml TGF–β1, 48 h, read-out: Nuclear count IC50. It is filed as cell-based. An outline of the steps: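 NHLF starved 24 h in serum-free basal medium with 0.1% BSA, then given compounds together with 5 ng/ml TGF-β1 for 48 h (0.6% DMSO). Methanol-fixed cells imaged for DAPI, α-SMA and FN; an SVM trained on ±TGF-β1 controls classified each cell, giving per-well % myofibroblast differentiation and nuclear counts.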

For data set [2] the test system is unchanged. As to the kind of experiment: Impedance measurement of TGF–β1–induced myofibroblast transition (IPQA), standard assay. It is filed as cell-based. Put shortly:
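Normal human lung fibroblasts, serum-starved 32 h in FBM with 0.1% faf BSA, given compound dilutions plus 5 ng/ml TGF-β1, with impedance tracked up to 48 h. Traces normalized to compound-addition time minus DMSO/non-TGF-β1 baseline; impedance at set time points fitted to concentration–response curves for potency and efficacy.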

Data set [3] deals with COL1 protein in NHLF cells. Description: RapidFire MS/MS quantification of COL1 (IPQA), standard assay. The class given is cell-based, human. An outline of the steps:
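Primary normal human lung fibroblasts starved 32 h in 0.1% faf BSA medium, then treated with compound dilutions plus 5 ng/ml TGF-β1. Lysates denatured in urea/thiourea, reduced, alkylated, trypsin-digested; surrogate peptides quantified by RapidFire LC-MS/MS in MRM mode, peak areas normalized to tubulin peptide.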

The test system of data set [4] is TGF–β1–induced NHLF myofibroblasts. Description: cells. The class given is cell-based. As for the experimental part: To measure dynamic cell shape and adhesion changes during fibrotic transdifferentiation, NHLF were seeded at a density of 20,000 cells per well in FGM–2 growth medium (Lonza) containing 100 units / ml of penicillin and 100 μg / ml of streptomycin into E–plates with continued impedance signal measurement (xCELLigence system, Roche Applied Science). After overnight growth, the medium was exchanged for FBM (Lonza) supplemented with 100 units / ml of penicillin and 100 μg / ml of streptomycin and 0.1% faf BSA and cells were starved for 32 h. Compound dilution series were added and myofibroblast transition was induced by adding TGF–β1 at a concentration of 5 ng / ml, followed by continued impedance sampling for up to 48 h. For data analysis, impedance raw traces were normalized to the time point of compound addition and the baseline response (DMSO, non–TGF–β1 treated cells) was subtracted. In some cases, impedance values at defined time points were used to generate concentration–response curves to determine compound potency and efficacy using GraphPad Prism software version 7 (GraphPad Software Inc).
To identify compounds with potential to revert differentiated myofibroblasts to fibroblasts the assay procedures were modified. After 24 h starvation, NHLF cells were stimulated with 5 ng / ml TGF–β1 for 24 h. At t = 24 h TGF–β1 was removed and either vehicle (DMSO) or compounds were added and incubated with the cells for a further 72 h.

Setting [5] is: Fibroblast, 5 ng/ml TGF–β1, compound added with TGF–β1, impedance at t = 20 h post TGF–β1, mean ± SD, read-out: Impedance IC50.
Setting [6] is: Homo sapiens, Col1, 48 h, NHLF, 5 ng/ml TGF–β1, 48 h, representative experiment of supplementary figure, read-out: IC50 on COL1 (curve of a single experiment).
Setting [7] is: Homo sapiens, Col1, 48 h, NHLF, 5 ng/ml TGF–β1, lysed 48 h after TGF–β1, normalized to tubulin, mean ± SD, read-out: MS / MS COL1 IC50.
Setting [8] is: reversal assay: 24 h 5 ng/ml TGF–β1, washed, then compound, impedance data at t = 20 h.
[9] abbreviates: Homo sapiens, Fibroblast, 5 ng/ml TGF–β1, t = 20 h, representative experiment of supplementary figure, read-out: IC50 on impedance (curve of a single experiment).
Setting [10] is: Homo sapiens, Col1, NHLF, 5 ng/ml TGF–β1, lysed 48 h after TGF–β1, normalized to tubulin, mean ± SD, read-out: MS / MS COL1 IC50.
Where [11] appears, read: NHLF, 5 ng/ml TGF–β1, lysed 48 h after TGF–β1, normalized to tubulin, mean ± SD, read-out: MS / MS COL1 IC50.
Setting [12] is: Homo sapiens, Col1, NHLF, 5 ng/ml TGF–β1, 48 h, representative experiment of supplementary figure, read-out: IC50 on COL1 (curve of a single experiment).

Read-outs that look alike come from different tables or passages of the source. Some results are limits rather than exact numbers.

For `CCCCC[C@H](O)/C=C/[C@H]1[C@H](O)CC(=O)[C@@H]1CCCCCCC(=O)O` [Alprostadil], the IC50 in data set [1] (Homo sapiens, Fibroblast, 48 h) is over 25000 nM; in data set [1] it was over 50000 nM; in data set [2] (setting [5]) it was 0.6 ± 0.1 nM; in data set [3] (setting [6]), 3.2 nM; in data set [3] (setting [7]), 5 ± 1.4 nM; in data set [4] (setting [8]), 0.9 ± 0.2 nM. Also, the “effect on basal COL1 expression” value in data set [3] (NHLF in the absence of TGF–β1) was “no effect”.
As to `C[C@]12CC[C@H](O)C[C@H]1CC[C@@H]1[C@@H]2C[C@@H](O)[C@]2(C)[C@@H](C3=CC(=O)OC3)CC[C@]12O` [Digoxigenin], the IC50 was over 25000 nM in data set [1] (Homo sapiens, Fibroblast, 48 h); 19000 nM in data set [1]; 250 ± 140 nM in data set [2] (setting [5]); 154 nM in data set [2] (setting [9]); 85 ± 8 nM in data set [3] (setting [10]); 140 nM in data set [4] (setting [8]).
On to `Cc1cccc(-c2[nH]c(CNc3ccccc3F)nc2-c2ccc3ncnn3c2)n1` [EW–7197], for which the IC50 was over 25000 nM in data set [1] (Homo sapiens, Fibroblast, 48 h); 47 ± 25 nM in data set [2] (setting [5]); 111 ± 30 nM in data set [3] (setting [7]); 110 ± 30 nM in data set [3] (setting [11]); 47 ± 1 nM in data set [4] (Homo sapiens, reversal assay, impedance at t = 72 h post TGF–β1, n = 2); over 10000 nM in data set [4] (setting [8]).
For the compound `CC(C)(C)c1ccc(CN(Cc2cccc(OCC(=O)O)c2)S(=O)(=O)c2cccnc2)cc1` [Evatanepag], the IC50 in data set [1] (Homo sapiens, Fibroblast, 48 h) is over 50000 nM; in data set [2] (setting [5]), 6.7 ± 3 nM; in data set [2] (setting [9]) it was 5 nM; in data set [3] (setting [12]) it was 11.4 nM; in data set [3] (setting [10]) it was 11 nM; in data set [4] (setting [8]) it was 14 nM.
Take `O=C(CC1NCCCC1O)Cn1cnc2cc(Br)c(Cl)cc2c1=O` (stereo not drawn) [Halofuginone]: the IC50 in data set [1] (Homo sapiens, Fibroblast, 48 h) is over 46000 nM; in data set [2] (setting [5]) it was 96 ± 10 nM; in data set [2] (setting [9]) it was 26 nM; in data set [3] (setting [12]), 28 nM; in data set [3] (setting [10]) it was 27 ± 1 nM; in data set [4] (setting [8]), over 1000 nM. For the same compound, the cytotoxic concentration in data set [4] (human, 72 h) is recorded as ≥ 10’000 nM.
In the case of `O=C1CC[C@H](/C=C/[C@@H](O)Cc2ccccc2)N1CCCCCCc1nn[nH]n1` [Merck–19a], the IC50 in data set [2] (5 ng/ml TGF–β1, compound added with TGF–β1, impedance at t = 20 h post TGF–β1, mean ± SD, read-out: Impedance IC50) amounted to 10.4 ± 1.1 nM; in data set [3] (setting [11]), 17.7 ± 7 nM.
As for `COC(=O)c1ccc2c(c1)NC(=O)/C2=C(\Nc1ccc(N(C)C(=O)CN2CCN(C)CC2)cc1)c1ccccc1` [Nintedanib], the IC50 in data set [1] (Homo sapiens, Fibroblast, 48 h) is 1400 nM; in data set [2] (setting [5]) it was 300 ± 110 nM; in data set [3] (setting [7]), 1600 nM; in data set [4] (setting [8]) it was over 10000 nM.
Regarding `CCCCC[C@H](O)/C=C/[C@H]1[C@H](O)CC(=O)[C@@H]1C/C=C\CCCC(=O)O` [PGE2, prostaglandin E2], the IC50 is over 2500 nM in data set [1] (Homo sapiens, Fibroblast, 48 h); 0.5 ± 0.1 nM in data set [2] (setting [5]); 0.4 nM in data set [2] (setting [9]); 1.8 nM in data set [3] (setting [6]); 4.9 ± 4.4 nM in data set [3] (setting [7]); 0.7 nM in data set [4] (setting [8]).
Take “TGF–β1: transforming growth factor–β1, stimulus of myofibroblast differentiation”: the “EC50 of impedance change” value in data set [2] (impedance at t = 20 h, mean ± SD, n = 8) was determined as 0.03 ± 0.01 ng/mL. Further, in data set [3] (NHLF, 5 ng/mL TGF-β1), the “COL1 / tubulin ratio” value came to 0.33 ± 0.07. In data set [3] (NHLF, 48 hours, MS/MS (n = 8)), the “EC50 of COL1 protein increase” value worked out at 0.05 ± 0.01 ng/mL. For the same compound, in data set [3] (NHLF, at 48 hours), the “increase of COL1 protein” value is listed as “about 3 fold”.
